Assay results published in patent USRE43038E1, “Compound having antitumor activity and process for producing the same” (Riken, priority 2002, dated 2011).
≈ marks a conversion by molar mass, not a printed value.

System: SH-SY5Y cells of human neuroblastoma
Assay: MTT growth inhibition of SH-SY5Y human neuroblastoma cells
Assay type: cell-based
Conditions: DMEM with 5% fetal bovine serum, 48 hours culture at 37° C., absorbance at 570 nm, read-out: 50% growth-inhibiting concentration
Experimental: SH-SY5Y cells of human neuroblastoma were cultured in DMEM medium (Dulbecco's modified Eagle medium) (containing 5% fetal bovine serum). Compound 1 of the present invention in a series of dilutions was added thereto and cultured at 37° C. under a 5% carbon dioxide atmosphere for 48 hours, followed by adding a MTT (3-(4,5-dimethyl-thiazol-2-yl)-2,5-diphenyl tetrazoliumbromide) reagent and further culturing for 2 to 4 hours. Absorbance at 570 nm was then measured to calculate the survival ratio.

IC50: 0.4 µg/mL (≈ 0.927 µM)
SMILES: CC=C(/C=C(C)/C=C/CC/C=C(\C)C(=O)C12OC1C(C)(O)NC2=O)C(=O)OC(C)(C)C (stereo not shown) [Compound 1, (3E,5E,9E)-tert-butyl-2-ethylidene-11-(4-hydroxy-4-methyl-2-oxo-6-oxa-3-aza-bicyclo[3.1.0]hex-1-yl)-4,10-dimethyl-11-oxounde ca-3,5,9-trienoate]
